pEC50: −log10 of the molar value. Read-outs that look alike come from different tables or passages of the source.

The test system of assay [1] is L. donovani HU3 strain in mouse peritoneal macrophages. The assay is described as follows: Assay for proliferation of Leishmania parasites in infected mouse peritoneal macrophages (SybrGreen staining, high-content imaging, 5 days). The assay is classed as cell-based, Leishmania donovani. Particulars: Leishmania donovani, Peritoneal macrophage, L. donovani in mouse peritoneal macrophages, read-out: L. donovani Macrophage EC50.

In assay [2] the test system is Leishmania donovani axenic amastigote parasites. Briefly: Leishmania donovani axenic amastigote proliferation assay (Cell TiterGlo luminescence, 2 day incubation). The assay is classed as cell-based. Particulars: Leishmania donovani, read-out: L. donovani amastigotes EC50. On the technique in general: ATP-based viability assays read luminescence as a measure of living cells.

The subject of assay [3] is Trypanosoma brucei Lister 427 strain, bloodstream form. Briefly: Assay for proliferation of kinetoplastid parasite Trypanosoma brucei (Cell Titer Glo, 48 hours). It counts as cell-based. As to conditions: Trypanosoma brucei, T. brucei Lister 427 bloodstream form, read-out: T. brucei EC50. An excerpt: Assay for Proliferation of Kinetoplastid Parasite Trypanosoma brucei.
The proliferation is quantified by the addition of Cell Titer Glo (Promega®) a luminescent cell viability assay that measures the number of viable cells in culture based on the quantification of cellular ATP amount, which is an indicator of metabolically active cells.
The following assay illustrates the invention without in any way limiting the scope of the invention. This parasite proliferation assay measures the increase in parasite growth using an assay that measures ATP activity, Cell Titer Glo®.
Trypanosoma brucei Lister 427 strain is grown in HMI-9 Trypanosome media for T. brucei bloodstream form. 30 μl of HMI-9 media is dispensed into 384 well assay plates. 200 nl of compounds of the invention (in DMSO), including anti-trypanosome controls (Pentamidine and suramin), are then transferred into the assay plates, as well as DMSO alone to serve as a negative control for inhibition. Then 25 μl of a suspension of T. brucei culture in HMI-9 media is dispensed into the assay plates. The final concentration of parasites in culture corresponds to 1.7% of 0.5 uM ATP activity with Cell Titer Glo® in HMI-9 media. The plates are placed in a 37° C. incubator for 48 hours in an atmospheric environment containing 5% CO2. 40 μl of Cell Titer Glo® is dispensed into the plates. The plates are then read for luminescence. The percentage inhibition of 50%, EC50, is calculated for each compound.

The mark [4] stands for this setting: axenic amastigotes, inhibition of proliferation.

Regarding `O=C(Nc1cnc2nc(-c3cc(NC(=O)N4CCCC4)ccc3F)cn2c1)OCc1ccccc1` [Compound 512, benzyl (2-(2-fluoro-5-(pyrrolidine-1-carboxamido)phenyl)imidazo[1,2-a]pyrimidin-6-yl)carbamate], the figures for the pEC50 in assay [1], in assay [2] (L. donovani axenic amastigotes) and in assay [3] were 5.52, 6.68 and 7.12, respectively.
The corresponding values for `O=C(Nc1cnc2nc(-c3ccc(F)c(NC(=O)N4CCCC4)c3)cn2c1)OCc1ccccc1` [Compound 513, Benzyl (2-(4-fluoro-3-(pyrrolidine-1-carboxamido)phenyl)imidazo[1,2-a]pyrimidin-6-yl)carbamate] are 5.80, 6.02 and 6.37.
As to `CCOC(=O)Nc1ccc(Cl)c(-c2cn3cc(-c4ccc(NC)cc4)cnc3n2)c1` [Compound 37], the values for the pEC50 in assay [1] (inhibition of proliferation), in assay [2] (setting [4]) and in assay [3] (inhibition of proliferation) were 5.52, 6.21 and 6.71, respectively.
As to `CC(C)OC(=O)Nc1ccc(F)c(-c2cn3cc(NC(=O)OC(C)C)cnc3n2)c1` [Compound 40], the pEC50 in assay [3] (inhibition of proliferation) is 6.73.
Regarding `Cc1ccc(C(=O)Nc2ccc(Cl)c(-c3cn4cc(-c5ccsc5)cnc4n3)c2)o1` [Compound 30], the pEC50 in assay [1] (inhibition of proliferation) was 6.76; in assay [2] (setting [4]), 7.00; in assay [3] (inhibition of proliferation), 7.06.
Turning to `CC(=O)Nc1ccc(F)c(-c2cn3cc(N)cnc3n2)c1` [Compound 569], the pEC50 was less than 4.60 in assay [2] (L. donovani axenic amastigotes) and less than 4.30 in assay [3].
Consider `CC(C)OC(=O)Nc1cnc2nc(-c3cc(NC(=O)c4ccco4)ccc3F)cn2c1` [Compound 12, isopropyl (2-(2-fluoro-5-(furan-2-carboxamido)phenyl)imidazo[1,2-a]pyrimidin-6-yl)carbamate], for which the pEC50 in assay [3] (inhibition of proliferation) is 7.18.
In the case of `O=C(Nc1ccc(F)c(-c2cn3cc(Br)cnc3n2)c1)c1ccccc1` [Compound 197], the pEC50 is 5.60 in assay [2] (setting [4]) and 6.31 in assay [3] (inhibition of proliferation).
`O=C(Nc1ccc(F)c(-c2cn3cc(Br)cnc3n2)c1)N1CCOCC1` [Compound 515]: the pEC50 was 5.13 in assay [2] (L. donovani axenic amastigotes) and 4.87 in assay [3].
Take `Nc1cnc2nc(-c3ccc(F)c(NC(=O)N4CCCC4)c3)cn2c1` [Compound 568, N-(5-(6-aminoimidazo[1,2-a]pyrimidin-2-yl)-2-fluorophenyl)pyrrolidine-1-carboxamide]: in assay [3], the pEC50 was 5.01.
On the same count and under the same terms, in the case of `Cc1nc(C)c(C(=O)Nc2ccc(F)c(-c3cn4cc(-c5ccc(CCO)cn5)cnc4n3)c2)o1` [Compound 585, N-(4-fluoro-3-(6-(5-(2-hydroxyethyl)pyridin-2-yl)imidazo[1,2-a]pyrimidin-2-yl)phenyl)-2,4-dimethyloxazole-5-carboxamide] it was 6.38.
As to `O=CNc1ccc(F)c(-c2cn3cc(Br)cnc3n2)c1` [Compound 531, N-(3-(6-bromoimidazo[1,2-a]pyrimidin-2-yl)-4-fluorophenyl)formamide], the pEC50 is less than 4.60 in assay [2] (L. donovani axenic amastigotes) and less than 4.30 in assay [3].
Regarding `O=CNc1cnc2nc(-c3cc(NC(=O)N4CCCC4)ccc3F)cn2c1` [Compound 533, N-(4-fluoro-3-(6-formamidoimidazo[1,2-a]pyrimidin-2-yl)phenyl)pyrrolidine-1-carboxamide], the pEC50 in assay [3] was 5.81.
On to `Nc1cnc2nc(-c3cccc(NC(=O)N4CCCC4)c3F)cn2c1` [Compound 580], for which the pEC50 in assay [2] (L. donovani axenic amastigotes) was less than 4.60; in assay [3], less than 4.30.
On to `Cc1nc(C)c(C(=O)Nc2ccc(F)c(-c3cn4cc(NC(=O)c5nccn5C)cnc4n3)c2)o1` [Compound 174], for which the pEC50 in assay [3] (inhibition of proliferation) was 6.32.
On the same count and under the same terms, to `CC(C)OC(=O)Nc1cnc2nc(-c3cccc(NC(=O)C4CC4)c3)cn2c1` [Compound 42] belongs 5.77.
Regarding `O=C(Nc1ccc(F)c(-c2cn3cc(Br)cnc3n2)c1)C1CCCC1` [Compound 196, N-(3-(6-bromoimidazo[1,2-a]pyrimidin-2-yl)-4-fluorophenyl)cyclopentanecarboxamide], the pEC50 in assay [2] (setting [4]) was 5.19; in assay [3] (inhibition of proliferation) it was 5.73.
Regarding `Cc1cnc(C(=O)Nc2cccc(-c3cn4cc(NC(=O)OC(C)C)cnc4n3)c2)s1` [Compound 41], the pEC50 in assay [3] (inhibition of proliferation) was 5.36.

By pEC50 is commonly meant the EC50 on a negative log10 scale, so that one unit is a factor of ten.

The record behind these values is patent US20160045505A1, “COMPOUNDS AND COMPOSITIONS FOR THE TREATMENT OF PARASITIC DISEASES” (NOVARTIS AG, priority 2013, published 2016).
